Where a SMILES comes first, the peptide text is derived from it.
Assays:
red blood cells = assay: Red blood cell hemolysis assay; assay type: cell-based; settings: 1 hour at 37° C.
Protocol: Red blood cells were incubated with the indicated concentration of the peptides for 1 hour at 37° C. Results are expressed as the mean of triplicates±1 SD.
Approximately 25% of the red blood cells were lysed after 1 hour at the maximum dose tested (FIG. 9). Overall, the modified peptides containing the Ala substitutions were less cytotoxic, and the degree of cytotoxicity closely correlated with the number of Ala substitutions.

[1] = tested on: HeLa cells stably transfected with human ABCA1 cDNA (ABCA1 cells); assay: Cholesterol and phospholipid efflux from ABCA1 transfected cells; assay type: cell-based; settings: for cholesterol efflux to other detergents compared with taurodeoxycholate: sublytic concentrations, ABCA1 cells and control cells; for cholesterol and phospholipid efflux from ABCA1 cells (in words): 18 hours
Protocol: (§1) Percentage efflux was calculated after subtracting the radioactive counts in the blank media (αMEM plus 1 mg/ml of BSA), and expressed as the percent of total radioactive counts removed from the cells during the efflux period.
(§2) Cell fixation was performed by a 10 minute treatment with 3% paraformaldehyde in phosphate buffered saline (PBS), followed by three washes with blank media. Lactate dehydrogenase (LDH) release from cells into the media was measured enzymatically (Roche Diagnostics, Indianapolis, Ind.) and expressed, after subtraction of LDH released into blank media, as the percentage of total cell LDH. Total cell LDH was determined after cell solubilization with 1% Triton X-100.

[2] = tested on: HeLa cells transfected with only a hygromycin-resistant control plasmid (control cells); assay: Cholesterol and phospholipid efflux from control cells; assay type: cell-based, human; settings: for cholesterol and phospholipid efflux from control cells (in words): 18 hours
Protocol: as §1, §2

[3] = tested on: ABCA1 cells and control cells; assay: Cell morphology by light microscopy during efflux experiments; assay type: cell-based, human; settings: light microscopy, during efflux experiments

Molecule: CC(C)C[C@H](NC(=O)[C@H](Cc1c[nH]c2ccccc12)NC(=O)[C@H](CC(=O)O)NC(=O)[C@@H]1CCCN1C(=O)[C@H](Cc1ccccc1)NC(=O)[C@H](C)NC(=O)[C@H](CCC(=O)O)NC(=O)[C@H](CCCCN)NC(=O)[C@H](CC(C)C)NC(=O)[C@H](CCCCN)NC(=O)[C@H](CCC(=O)O)NC(=O)[C@H](C)NC(=O)[C@@H](NC(=O)[C@H](CCCCN)NC(=O)[C@H](CC(=O)O)NC(=O)[C@H](Cc1ccc(O)cc1)NC(=O)[C@H](Cc1ccccc1)NC(=O)[C@H](C)NC(=O)[C@H](CCCCN)NC(=O)[C@H](CC(C)C)NC(=O)[C@H](Cc1c[nH]c2ccccc12)NC(=O)[C@@H](N)CC(=O)O)C(C)C)C(=O)N[C@@H](CCCCN)C(=O)N[C@@H](C)C(=O)N[C@@H](C)C(=O)N[C@@H](Cc1ccc(O)cc1)C(=O)N[C@@H](CC(=O)O)C(=O)N[C@@H](CCCCN)C(=O)N[C@@H](C)C(=O)N[C@@H](C)C(=O)N[C@@H](CCC(=O)O)C(=O)N[C@@H](CCCCN)C(=O)N[C@@H](C)C(=O)N[C@@H](CCCCN)C(=O)N[C@@H](CCC(=O)O)C(=O)N[C@@H](C)C(=O)N[C@@H](C)C(=O)O [4A] (H-DWLKAFYDKVAEKLKEAFPDWLKAAYDKAAEKAKEAA-OH; N-terminus and C-terminus assumed)
- hemolysis / cytotoxicity to red blood cells (in words) (red blood cells): no appreciable hemolysis

Molecule: CC(C)C[C@H](NC(=O)[C@H](Cc1c[nH]c2ccccc12)NC(=O)[C@H](CC(=O)O)NC(=O)[C@@H]1CCCN1C(=O)[C@H](Cc1ccccc1)NC(=O)[C@H](C)NC(=O)[C@H](CCC(=O)O)NC(=O)[C@H](CCCCN)NC(=O)[C@H](CC(C)C)NC(=O)[C@H](CCCCN)NC(=O)[C@H](CCC(=O)O)NC(=O)[C@H](C)NC(=O)[C@@H](NC(=O)[C@H](CCCCN)NC(=O)[C@H](CC(=O)O)NC(=O)[C@H](Cc1ccc(O)cc1)NC(=O)[C@H](Cc1ccccc1)NC(=O)[C@H](C)NC(=O)[C@H](CCCCN)NC(=O)[C@H](CC(C)C)NC(=O)[C@H](Cc1c[nH]c2ccccc12)NC(=O)[C@@H](N)CC(=O)O)C(C)C)C(=O)N[C@@H](CCCCN)C(=O)N[C@@H](C)C(=O)N[C@@H](Cc1ccccc1)C(=O)N[C@@H](Cc1ccc(O)cc1)C(=O)N[C@@H](CC(=O)O)C(=O)N[C@@H](CCCCN)C(=O)N[C@H](C(=O)N[C@@H](C)C(=O)N[C@@H](CCC(=O)O)C(=O)N[C@@H](CCCCN)C(=O)N[C@@H](C)C(=O)N[C@@H](CCCCN)C(=O)N[C@@H](CCC(=O)O)C(=O)N[C@@H](C)C(=O)N[C@@H](Cc1ccccc1)C(=O)O)C(C)C [1A] (H-DWLKAFYDKVAEKLKEAFPDWLKAFYDKVAEKAKEAF-OH; N-terminus and C-terminus assumed)
- hemolysis / cytotoxicity to red blood cells (in words) (red blood cells): moderate degree of hemolysis

Molecule: C[C@H](CCC(=O)NCCC[N+](C)(C)CCCS(=O)(=O)[O-])[C@H]1CC[C@H]2[C@@H]3[C@H](O)C[C@@H]4C[C@H](O)CC[C@]4(C)[C@H]3C[C@H](O)[C@]12C [CHAPS]
- cholesterol efflux to other detergents compared with taurodeoxycholate [1]: Nearly identical results

Molecule: RMRITERDDFRGQMSEITDDCPSLQDRFHLTEVHSLRVLEGS (Gamma crystalline peptide.) [contains two non-amphipathic alpha helices of approximately the same length as the helices on 37pA, reference compound]
- cholesterol and phospholipid efflux from ABCA1 cells (in words) [1]: completely ineffective
- cholesterol and phospholipid efflux from control cells (in words) [2]: completely ineffective

Molecule: DWLKAFYDKVAEKLKEAFPDWLKAFYDKVA EKLKEAF [37pA, reference compound]
- cholesterol and phospholipid efflux from ABCA1 cells (in words) [1]: promoted ABCA1-mediated cholesterol efflux
- cholesterol and phospholipid efflux from control cells (in words) [2]: able to mediate cholesterol efflux from a control HeLa cell line

Molecule: CC(C)C[C@H](NC(=O)[C@H](Cc1c[nH]c2ccccc12)NC(=O)[C@H](CC(=O)O)NC(=O)[C@@H]1CCCN1C(=O)[C@H](Cc1ccccc1)NC(=O)[C@H](C)NC(=O)[C@H](CCC(=O)O)NC(=O)[C@H](CCCCN)NC(=O)[C@H](CC(C)C)NC(=O)[C@H](CCCCN)NC(=O)[C@H](CCC(=O)O)NC(=O)[C@H](C)NC(=O)[C@@H](NC(=O)[C@H](CCCCN)NC(=O)[C@H](CC(=O)O)NC(=O)[C@H](Cc1ccc(O)cc1)NC(=O)[C@H](Cc1ccccc1)NC(=O)[C@H](C)NC(=O)[C@H](CCCCN)NC(=O)[C@H](CC(C)C)NC(=O)[C@H](Cc1c[nH]c2ccccc12)NC(=O)[C@@H](N)CC(=O)O)C(C)C)C(=O)N[C@@H](CCCCN)C(=O)N[C@@H](C)C(=O)N[C@@H](C)C(=O)N[C@@H](Cc1ccc(O)cc1)C(=O)N[C@@H](CC(=O)O)C(=O)N[C@@H](CCCCN)C(=O)N[C@H](C(=O)N[C@@H](C)C(=O)N[C@@H](CCC(=O)O)C(=O)N[C@@H](CCCCN)C(=O)N[C@@H](C)C(=O)N[C@@H](CCCCN)C(=O)N[C@@H](CCC(=O)O)C(=O)N[C@@H](C)C(=O)N[C@@H](C)C(=O)O)C(C)C [3A] (H-DWLKAFYDKVAEKLKEAFPDWLKAAYDKVAEKAKEAA-OH; N-terminus and C-terminus assumed)
- hemolysis / cytotoxicity to red blood cells (in words) (red blood cells): moderate degree of hemolysis

Molecule: CC(C)C[C@H](NC(=O)[C@H](CCCCN)NC(=O)[C@H](CCC(=O)O)NC(=O)[C@H](C)NC(=O)[C@@H](NC(=O)[C@H](CCCCN)NC(=O)[C@H](CC(=O)O)NC(=O)[C@H](Cc1ccc(O)cc1)NC(=O)[C@H](Cc1ccccc1)NC(=O)[C@H](C)NC(=O)[C@H](CCCCN)NC(=O)[C@H](CC(C)C)NC(=O)[C@H](Cc1c[nH]c2ccccc12)NC(=O)[C@@H](N)CC(=O)O)C(C)C)C(=O)N[C@@H](CCCCN)C(=O)N[C@@H](CCC(=O)O)C(=O)N[C@@H](C)C(=O)N[C@@H](Cc1ccccc1)C(=O)N1CCC[C@H]1C(=O)N[C@@H](CC(=O)O)C(=O)N[C@@H](Cc1c[nH]c2ccccc12)C(=O)N[C@@H](C)C(=O)N[C@@H](CCCCN)C(=O)N[C@@H](C)C(=O)N[C@@H](C)C(=O)N[C@@H](Cc1ccc(O)cc1)C(=O)N[C@@H](CC(=O)O)C(=O)N[C@@H](CCCCN)C(=O)N[C@@H](C)C(=O)N[C@@H](C)C(=O)N[C@@H](CCC(=O)O)C(=O)N[C@@H](CCCCN)C(=O)N[C@@H](C)C(=O)N[C@@H](CCCCN)C(=O)N[C@@H](CCC(=O)O)C(=O)N[C@@H](C)C(=O)N[C@@H](C)C(=O)O [5A] (H-DWLKAFYDKVAEKLKEAFPDWAKAAYDKAAEKAKEAA-OH; N-terminus and C-terminus assumed)
- hemolysis / cytotoxicity to red blood cells (in words) (red blood cells): no appreciable hemolysis

Molecule: NP-40
- cholesterol efflux to other detergents compared with taurodeoxycholate [1]: Nearly identical results

Molecule: C[C@H](CCC(=O)NCCS(=O)(=O)O)[C@H]1CC[C@H]2[C@@H]3CC[C@@H]4C[C@H](O)CC[C@]4(C)[C@H]3C[C@H](O)[C@]12C [taurodeoxycholate, reference compound]
- effect on cell morphology [3]: did not alter the morphology of the cells
- cholesterol efflux from ABCA1 cells to detergent after fixation ([1]; 0.02%, 1 hour, after fixation with 3% paraformaldehyde): slightly increased after fixation
- cholesterol efflux from ABCA1 cells to detergent ([1]; 0.02%, 1 hour, before fixation): small amount of cholesterol efflux
- cholesterol efflux from control cells to detergent ([2]; 0.02%, 1 hour): Approximately the same amount of cholesterol efflux

Molecule: CC(C)C[C@H](NC(=O)[C@H](Cc1c[nH]c2ccccc12)NC(=O)[C@H](CC(=O)O)NC(=O)[C@@H]1CCCN1C(=O)[C@H](Cc1ccccc1)NC(=O)[C@H](C)NC(=O)[C@H](CCC(=O)O)NC(=O)[C@H](CCCCN)NC(=O)[C@H](CC(C)C)NC(=O)[C@H](CCCCN)NC(=O)[C@H](CCC(=O)O)NC(=O)[C@H](C)NC(=O)[C@@H](NC(=O)[C@H](CCCCN)NC(=O)[C@H](CC(=O)O)NC(=O)[C@H](Cc1ccc(O)cc1)NC(=O)[C@H](Cc1ccccc1)NC(=O)[C@H](C)NC(=O)[C@H](CCCCN)NC(=O)[C@H](CC(C)C)NC(=O)[C@H](Cc1c[nH]c2ccccc12)NC(=O)[C@@H](N)CC(=O)O)C(C)C)C(=O)N[C@@H](CCCCN)C(=O)N[C@@H](C)C(=O)N[C@@H](Cc1ccccc1)C(=O)N[C@@H](Cc1ccc(O)cc1)C(=O)N[C@@H](CC(=O)O)C(=O)N[C@@H](CCCCN)C(=O)N[C@H](C(=O)N[C@@H](C)C(=O)N[C@@H](CCC(=O)O)C(=O)N[C@@H](CCCCN)C(=O)N[C@@H](C)C(=O)N[C@@H](CCCCN)C(=O)N[C@@H](CCC(=O)O)C(=O)N[C@@H](C)C(=O)N[C@@H](C)C(=O)O)C(C)C [2A] (H-DWLKAFYDKVAEKLKEAFPDWLKAFYDKVAEKAKEAA-OH; N-terminus and C-terminus assumed)
- hemolysis / cytotoxicity to red blood cells (in words) (red blood cells): moderate degree of hemolysis
